Laboratory results reported in patent US20260042764A1, “COMPOSITIONS AND METHODS FOR INHIBITION OF KRAS” (TheRas, Inc., priority 2022, published 2026).

What was measured:
[1] = target: T1, Avi-KRAS G12D (1-169) GppNHp/RAF1 RBD-3xFLAG (52-151) (Homo sapiens, UniProt P01116, G12D); assay: Raf1-KRAS G12D-GppNHP disruption HTRF assay (Biological Example 1); type: binding
T1 construct: Avi-KRAS G12D (1-169)
In short: (§1)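 Compounds were tested for disruption of KRAS–RAF1 RBD binding by HTRF in 50 mM Tris pH 7.5, 100 mM NaCl, 5 mM MgCl2, 0.1% BSA, 0.01% Tween, 10% DMSO. Protein mix was incubated 1 h at room temperature with shaking, then detection reagents added for another 1 h. Activity expressed as percent of DMSO control.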

[2] = target: T2, Avi-KRAS G12V (1-169) GppNHp/RAF1 RBD-3xFLAG (52-151) (Homo sapiens, UniProt P01116, G12V); assay: Raf1-KRAS G12V-GppNHP disruption HTRF assay (Biological Example 1); type: binding
T2 construct: Avi-KRAS G12V (1-169)
In short: as §1

SW620 cells (KRAS G12V) = assay: Cell-based pERK HTRF assay in SW620 cell (Biological Example 4); details: pERK HTRF
In short: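 SW620 cells were treated for 4 h with compound in a 9-point half-log series from 1 μM top (0.25% DMSO), then lysed. Phospho-ERK was detected by HTRF with d2 and Eu cryptate antibodies after 4–24 h at room temperature, read at 615 nm emission.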

[3] = target: T3, Avi-KRAS WT (1-169) GppNHp/RAF1 RBD-3xFLAG (52-151) (Homo sapiens, UniProt P01116); assay: Raf1-KRAS WT-GppNHP disruption HTRF assay (Biological Example 1); type: binding
T3 construct: Avi-KRAS WT (1-169)
In short: as §1

GP2d cells (KRAS G12D) = assay: Cell-based pERK HTRF assay in GP2d cell (Biological Example 2); details: GP2d (KRAS G12D) cells, pERK HTRF
In short: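 Cells grown in DMEM with 10% FBS were exposed to compound for 60 min at 0.25% DMSO, using a 9-point half-log series starting at 1 μM or 100 nM. Lysates were then mixed with d2 and Eu cryptate antibodies for 4–24 h at room temperature, and pERK was read by HTRF.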

[4] = target: T4, Avi-KRAS G12R (1-169) GppNHp/RAF1 RBD-3xFLAG (52-151) (Homo sapiens, UniProt P01116, G12R); assay: Raf1-KRAS G12R-GppNHP disruption HTRF assay (Biological Example 1); type: binding
T4 construct: Avi-KRAS G12R (1-169)
In short: as §1

[5] = Homo sapiens, SW-620, SW620 (KRAS G12V) cells
[6] = KRAS G12D, GppNHp-loaded, Table 11
[7] = KRAS G12V, GppNHp-loaded, Table 11
[8] = KRAS WT, GppNHp-loaded, Table 11
[9] = KRAS G12R, GppNHp-loaded, Table 11
[10] = KRAS G12D, GppNHp-loaded, class symbols
[11] = KRAS G12V, GppNHp-loaded, class symbols
[12] = Homo sapiens, SW-620, SW620 (KRAS G12V) cells, class symbols
[13] = KRAS WT, GppNHp-loaded, class symbols
[14] = KRAS G12R, GppNHp-loaded, class symbols

T2 sequence (P01116 1-169 isoform P01116-2 G12V): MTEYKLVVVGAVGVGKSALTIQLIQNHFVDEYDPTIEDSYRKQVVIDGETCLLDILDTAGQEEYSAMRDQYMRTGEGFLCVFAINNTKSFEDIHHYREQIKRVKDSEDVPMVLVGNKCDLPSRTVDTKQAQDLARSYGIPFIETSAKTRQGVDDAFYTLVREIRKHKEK
T3 sequence (P01116 1-169 isoform P01116-2): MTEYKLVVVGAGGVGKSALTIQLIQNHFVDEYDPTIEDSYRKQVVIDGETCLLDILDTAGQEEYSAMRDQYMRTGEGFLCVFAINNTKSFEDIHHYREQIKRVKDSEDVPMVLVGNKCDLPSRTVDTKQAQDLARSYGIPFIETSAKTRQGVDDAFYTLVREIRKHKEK
T1 sequence (P01116 1-169 isoform P01116-2 G12D): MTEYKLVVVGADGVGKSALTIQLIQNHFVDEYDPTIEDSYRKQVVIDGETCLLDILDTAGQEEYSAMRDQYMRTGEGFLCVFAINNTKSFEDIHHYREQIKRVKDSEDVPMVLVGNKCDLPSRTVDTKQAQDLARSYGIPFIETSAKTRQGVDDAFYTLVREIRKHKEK
T4 sequence (P01116 1-169 isoform P01116-2 G12R): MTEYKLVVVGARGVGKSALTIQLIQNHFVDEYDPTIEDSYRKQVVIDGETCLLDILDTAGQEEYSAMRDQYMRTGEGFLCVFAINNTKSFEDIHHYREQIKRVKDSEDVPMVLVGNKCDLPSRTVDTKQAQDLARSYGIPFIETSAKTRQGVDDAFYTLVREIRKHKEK

IC50 ([1]; KRAS G12D-GppNHp/RAF1 RBD HTRF) | IC50 ([2]; KRAS G12V-GppNHp/RAF1 RBD HTRF) | IC50 (SW620 cells (KRAS G12V); [5]) | IC50 ([3]; KRAS WT-GppNHp/RAF1 RBD HTRF) | IC50 (GP2d cells (KRAS G12D); GP2d) | IC50 ([4]; KRAS G12R-GppNHp/RAF1 RBD HTRF) | IC50 [1, 10] | IC50 [2, 11] | IC50 (SW620 cells (KRAS G12V); [12]) | IC50 [3, 13] | IC50 (GP2d cells (KRAS G12D); GP2d, class symbols) | IC50 [4, 14] | Structure (SMILES) | other results
1 to 10 µM | > 10 µM | 0.1 to 1 µM | 1 to 10 µM | 0.1 to 1 µM | 1 to 10 µM | – | – | – | – | – | – | N#Cc1c(N)sc2c(F)ccc(-c3c(C(F)(F)F)cc4c(N5CC6CC(O)C(C6)C5)nc(OC[C@@]56CCCN5C[C@H](F)C6)nc4c3F)c12 (stereo partly drawn) [Compound 306] | –
0.1 to 1 µM | 0.1 to 1 µM | < 0.1 µM | 0.1 to 1 µM | < 0.1 µM | 0.1 to 1 µM | – | – | – | – | – | – | CCC(=O)N1CC[C@@H](N(CC)c2nc(OC[C@@]34CCCN3C[C@H](F)C4)nc3c(F)c(-c4ccc(F)c5sc(N)c(C#N)c45)c(C(F)(F)F)cc23)[C@H]1C [Compound 405] | –
– | – | 0.1 to 1 µM | – | < 0.1 µM | – | – | – | – | – | – | – | CC(C)(O)[C@H]1CCN1c1nc(OC[C@@]23CCCN2C[C@H](F)C3)nc2c(F)c(-c3ccc(F)c4sc(N)c(C#N)c34)c(C(F)(F)F)cc12 [Compound 269] | IC50 [1, 6]: 0.1 to 1 µM; IC50 [2, 7]: 1 to 10 µM; IC50 [3, 8]: 0.1 to 1 µM; IC50 [4, 9]: 0.1 to 1 µM
0.1 to 1 µM | 1 to 10 µM | 0.1 to 1 µM | 0.1 to 1 µM | < 0.1 µM | 0.1 to 1 µM | – | – | – | – | – | – | CN(c1nc(OC[C@@]23CCCN2C[C@H](F)C3)nc2c(F)c(-c3ccc(F)c4sc(N)c(C#N)c34)c(C(F)(F)F)cc12)C1CCCS(=O)(=O)C1 (stereo partly drawn) [Compound 341] | –
– | – | 0.1 to 1 µM | – | < 0.1 µM | – | – | – | – | – | – | – | CN(c1nc(OC[C@@]23CCCN2C[C@H](F)C3)nc2c(F)c(-c3ccc(F)c4sc(N)c(C#N)c34)c(C(F)(F)F)cc12)C1CCOCC1 [Compound 264] | IC50 [1, 6]: 0.1 to 1 µM; IC50 [2, 7]: 1 to 10 µM; IC50 [3, 8]: 0.1 to 1 µM; IC50 [4, 9]: 0.1 to 1 µM
– | – | – | – | – | – | – | – | – | – | – | – | CN(c1nc(OC[C@@]23CCCN2C[C@H](F)C3)nc2c(F)c(-c3ccc(F)c4sc(N)c(C#N)c34)c(C(F)(F)F)cc12)[C@H]1CCS(=O)(=O)C1 (single isomer, unassigned) [Compound 220] | IC50 [1, 6]: > 10 µM; IC50 [2, 7]: > 10 µM; IC50 (SW620 cells (KRAS G12V); SW620 (KRAS G12V) cells): > 1 µM; IC50 [3, 8]: > 10 µM; IC50 (GP2d cells (KRAS G12D)): > 1 µM; IC50 [4, 9]: > 10 µM
– | – | – | – | – | – | < 0.1 µM | < 0.1 µM | < 0.1 µM | < 0.1 µM | < 0.1 µM | < 0.1 µM | CCN(c1nc(OC[C@@]23CCCN2C[C@H](F)C3)nc2c(F)c(-c3ccc(F)c4sc(N)c(C#N)c34)c(C(F)(F)F)cc12)[C@H]1CCN(C(=O)N2C[C@@H](F)[C@@H](F)C2)C1 (atropisomer, axis not shown) [Compound 609] | –
– | – | – | – | – | – | < 0.1 µM | < 0.1 µM | < 0.1 µM | < 0.1 µM | < 0.1 µM | < 0.1 µM | CCN(c1nc(OC[C@@]23CCCN2C[C@H](F)C3)nc2c(F)c(-c3ccc(F)c4sc(N)c(C#N)c34)c(C(F)(F)F)cc12)[C@@H]1CCN(C(=O)[C@H]2CCO2)[C@@H]1C (atropisomer, axis not shown) [Compound 788] | –
– | – | – | – | – | – | < 0.1 µM | < 0.1 µM | < 0.1 µM | < 0.1 µM | < 0.1 µM | < 0.1 µM | CCN(c1nc(OC[C@@]23CCCN2C[C@H](F)C3)nc2c(F)c(-c3ccc(F)c4sc(N)c(C#N)c34)c(C(F)(F)F)cc12)[C@@H]1CCN(C(=O)[C@@H](C)OC)[C@@H]1C (atropisomer, axis not shown) [Compound 807] | –
< 0.1 µM | 0.1 to 1 µM | < 0.1 µM | 0.1 to 1 µM | < 0.1 µM | 0.1 to 1 µM | – | – | – | – | – | – | CN(C)C(=O)[C@H]1CN(c2nc(OC[C@@]34CCCN3C[C@H](F)C4)nc3c(F)c(-c4ccc(F)c5sc(N)c(C#N)c45)c(C(F)(F)F)cc23)CCO1 [Compound 465] | –
– | – | – | – | – | – | < 0.1 µM | < 0.1 µM | < 0.1 µM | < 0.1 µM | < 0.1 µM | < 0.1 µM | CCN(c1nc(OC[C@@]23CCCN2C[C@H](F)C3)nc2c(F)c(-c3ccc(F)c4sc(N)c(C#N)c34)c(C(F)(F)F)cc12)[C@H]1CCN(C(=O)C2CCOCC2)C1 (atropisomer, axis not shown) [Compound 578] | –
– | – | – | – | – | – | < 0.1 µM | < 0.1 µM | < 0.1 µM | < 0.1 µM | < 0.1 µM | < 0.1 µM | CCN1C[C@@H](N(CC)c2nc(OC[C@@]34CCCN3C[C@H](F)C4)nc3c(F)c(-c4ccc(F)c5sc(N)c(C#N)c45)c(C(F)(F)F)cc23)CC1=O (atropisomer, axis not shown) [Compound 634] | –
– | – | – | – | – | – | 0.1 to 1 µM | 0.1 to 1 µM | < 0.1 µM | 0.1 to 1 µM | < 0.1 µM | 0.1 to 1 µM | CCN(c1nc(OC[C@@]23CCCN2C[C@H](F)C3)nc2c(F)c(-c3ccc(F)c4sc(N)c(C#N)c34)c(C(F)(F)F)cc12)[C@H]1C[C@@H](COC)N(C(=O)OC)C1 (atropisomer, axis not shown) [Compound 714] | –
< 0.1 µM | 0.1 to 1 µM | 0.1 to 1 µM | 0.1 to 1 µM | < 0.1 µM | 0.1 to 1 µM | – | – | – | – | – | – | CC(=O)N1C[C@H](O)[C@@H](N(C)c2nc(OC[C@@]34CCCN3C[C@H](F)C4)nc3c(F)c(-c4ccc(F)c5sc(N)c(C#N)c45)c(C(F)(F)F)cc23)C1 [Compound 347] | –
0.1 to 1 µM | 1 to 10 µM | < 0.1 µM | 0.1 to 1 µM | < 0.1 µM | 0.1 to 1 µM | – | – | – | – | – | – | N#Cc1c(N)sc2c(F)ccc(-c3c(C(F)(F)F)cc4c(N5CC6COC(C6)C5)nc(OC[C@@]56CCCN5C[C@H](F)C6)nc4c3F)c12 (stereo partly drawn) [Compound 292] | –
– | – | < 0.1 µM | – | < 0.1 µM | – | – | – | – | – | – | – | CN(C[C@H](F)CO)c1nc(OC[C@@]23CCCN2C[C@H](F)C3)nc2c(F)c(-c3ccc(F)c4sc(N)c(C#N)c34)c(C(F)(F)F)cc12 [Compound 216] | IC50 [1, 6]: 0.1 to 1 µM; IC50 [2, 7]: 0.1 to 1 µM; IC50 [3, 8]: 0.1 to 1 µM; IC50 [4, 9]: 0.1 to 1 µM
– | – | – | – | – | – | < 0.1 µM | 0.1 to 1 µM | < 0.1 µM | 0.1 to 1 µM | < 0.1 µM | < 0.1 µM | CC(C)C(=O)N1CC[C@H](N(C)c2nc(OC[C@@]34CCCN3C[C@H](F)C4)nc3c(F)c(-c4ccc(F)c5sc(N)c(C#N)c45)c(C(F)(F)F)cc23)C1 (atropisomer, axis not shown) [Compound 786] | –
0.1 to 1 µM | 0.1 to 1 µM | 0.1 to 1 µM | 0.1 to 1 µM | < 0.1 µM | 0.1 to 1 µM | – | – | – | – | – | – | CC(=O)N1C[C@@H](C)[C@H](N(C)c2nc(OC[C@@]34CCCN3C[C@H](F)C4)nc3c(F)c(-c4ccc(F)c5sc(N)c(C#N)c45)c(C(F)(F)F)cc23)C1 [Compound 303] | –
– | – | – | – | – | – | < 0.1 µM | < 0.1 µM | < 0.1 µM | < 0.1 µM | < 0.1 µM | < 0.1 µM | CC#CC(=O)N1CC[C@H](N(CC)c2nc(OC[C@@]34CCCN3C[C@H](F)C4)nc3c(F)c(-c4ccc(F)c5sc(N)c(C#N)c45)c(C(F)(F)F)cc23)C1 (atropisomer, axis not shown) [Compound 679] | –

Structure (SMILES) | IC50 ([1]; KRAS G12D-GppNHp/RAF1 RBD HTRF) | IC50 ([2]; KRAS G12V-GppNHp/RAF1 RBD HTRF) | IC50 (SW620 cells (KRAS G12V); [5]) | IC50 ([3]; KRAS WT-GppNHp/RAF1 RBD HTRF) | IC50 (GP2d cells (KRAS G12D); GP2d) | IC50 ([4]; KRAS G12R-GppNHp/RAF1 RBD HTRF) | IC50 [1, 10] | IC50 [2, 11] | IC50 (SW620 cells (KRAS G12V); [12]) | IC50 [3, 13] | IC50 (GP2d cells (KRAS G12D); GP2d, class symbols) | IC50 [4, 14] | other results
N#Cc1c(N)sc2c(F)ccc(-c3c(C(F)(F)F)cc4c(N5CC6CC(C5)O6)nc(OC[C@]56C[C@@H](F)CN5CC5(CC5)C6)nc4c3F)c12 [Compound 594] | – | – | – | – | – | – | 1 to 10 µM | 1 to 10 µM | < 0.1 µM | 1 to 10 µM | < 0.1 µM | 1 to 10 µM | –
